Data taken from publication PMC2120418 (The Journal of Cell Biology, 1995).

Columns and labels:
[1] = test system: dispersed rat pancreatic acini; details: core peptide for the probes; cited from earlier work
[2] = test system: rat CCK-A receptors on CHO-CCKR cells; assay: Indirect immunofluorescence of surface CCK receptor after agonist occupation; format: cell-based, rat receptor in CHO cells; details: 10 nM CCK-8, 30 min, 37C

| Substance | Biological activity of core peptide [1] | Surface immunolabeling of the receptor, level relative to control cells [2] [%] |
| --- | --- | --- |
| GIy-[(NIe2S.31)CCK26-33] | fully biologically active | – |
| CCK-8: native cholecystokinin hormone, nonfluorescent agonist | – | 49 |
